In patent publication US7022524B1, “Increasing plant growth with luminol” (The Regents of the University of California, Office of …, priority 1998, dated 2006):

What was measured:
R. meliloti 1021 = test: Production of compounds D and Y by bacterial cultures in supplemented medium; type: cell-based, Rhizobium meliloti; conditions: culture medium supplemented at final concentration of 50 micromolar
alfalfa = test: Plant growth (dry weight of shoots and roots) of alfalfa after root or seed treatment; type: in vivo, Medicago sativa L.
Procedure: In another experiment, treating alfalfa seedling roots with purified compound D at a presumed concentration of about 100 pM every 48 hours for 10 days increased the final shoot dry mass (as determined by weighing) 10% relative to untreated control plants.
Moapa 69′ alfalfa seeds for all experiments were soaked 30 min in 70% ethanol, rinsed with sterile water, treated 5 min in concentrated H2SO4, rinsed with sterile water, soaked 30 min in commercial bleach and then washed with sterile water. For respiration tests approximately 400 seeds (1 gram) were germinated on a 10×10-cm screen above a hydroponic nutrient solution, see Volpin (1998) Plant Physiol. 116:777-783. In some hydroponic experiments the nutrient solution was supplemented to contain ampicillin (125 mg/L) and rifampicin (10 mg/L). Plant growth experiments were done in sterile pots (10×10×10 cm) containing vermiculite. The pots were watered with the hydroponic nutrient solution (Volpin (1998) supra) supplemented to contain 1 mM NH4NO3 and various lumichrome treatments every second day. In all experiments, plants were grown under controlled conditions using a 12/12-hour day/night photoperiod and a 25/20° C. temperature regime with a photon flux density (400-700 nm) of 250 μmol/m^2-s.
Lumichrome effects on plant growth were tested by treating roots or seeds. Surface-sterilized seeds were soaked 2 hours in either 0 or 5 nM lumichrome. Then 50 seeds were planted in vermiculite in each pot. Plants germinating from untreated seeds received nutrient solution containing 0, 5 or 50 nM lumichrome. Plants developing from seeds soaked in 5 nM lumichrome were watered with lumichrome-free nutrient solution. Pots were covered initially with a clear, plastic wrap, which was removed after 6 days. Plants were harvested 12 days after germination, and roots and shoots were separated, dried, and weighed.

[1] = system: alfalfa (Medicago sativa L.) roots; test: Root respiration (CO2 evolution / O2 uptake by gas chromatograph) of excised alfalfa roots after treating intact seedlings; type: in vivo
Procedure: Rhizobium meliloti 1021 (Rm1021) (Meade (1982) J. Bacteriol. 149:114-122) were grown to the early stationary phase in a defined minimal medium (as described in Vincent (1970) In “A Manual for the Practical Study of Root-Nodule Bacteria, Blackwell Scientific Publications, Oxford, UK). Bacteria were collected by centrifugation and washed three times with sterile water before roots were inoculated. UV irradiance for killing cells in some experiments was supplied as a 25 minute treatment with a transilluminator(model T1202, Sigma). The absence of living cells in UV-killed cultures and sterile, non-inoculated control treatments was verified by plating on tryptone yeast medium.
If respiration is to be measured, it is important that the plants be grown under sterile conditions for the respiration measurements (see, e.g., Guri, et al., U.S. Pat. No. 5,503,652, describing compositions and methods to prevent microbial contamination of plant tissue culture media). Seeds of alfalfa (Medicago sativa L. cv Moapa 69) were surface sterilized for 15 minutes in 70% ethanol, rinsed with water, and allowed to imbibe for four hours with aeration before germinating in a hydroponic system (as in Maxwell (1989) Plant Physiol. 91:842-847) containing nitrogen free nutrient solution (see DeJong (1981) Plant Physiol. 68:309-313). Each 400 mL plastic box contained one gram of seeds and produced about 400 seedlings after being maintained in a sterile manner for about three days with aeration at 25° C. under indirect sunlight supplemented with fluorescent lights. Plants used in these experiments consisted of cotyledons and roots with an occasional primary leaf.
Experiments used 5×10^7 colony-forming units (CFU) of bacteria per mL of plant nutrient solution unless otherwise noted. Bacteria were harvested from their growth medium, washed twice in sterile water, suspended in 1 mL of water and added to the plant nutrient solution of alfalfa seedlings 3 days after germination, when roots were approximately 4-cm long. Sterile water (1 mL) was added to the sterile non-inoculated controls. Plants were harvested to measure root respiration at various times, depending of the experiment. At harvest, roots were excised, blotted briefly on a paper towel, weighed, and enclosed in a 10-mL gas-tight test tube. Each replicate contained 1 gram fresh wt of roots from about 200 plants; every experiment had three or four replicates; and all experiments were repeated at least twice.
All assays were conducted for 30 minutes immediately after excision. Changes in CO2, and in some experiments O2, were measured at 45° C. with a thermistor detector on a Sigma 4 gas chromatograph equipped with a column (3.05 m×3.2 mm) containing Chromosorb 102 for CO2 and Molecular Sieve 5A for O2. Helium was used as the carrier gas at flow rates of 15 cm^3/min for O2 and 35 cm^3/min for CO2. The change in gas composition during the first 30 min after the roots were enclosed in the assay tubes (described above) was used to calculate respiration rates. Data were analyzed with standard statistical methods to determine SE or LSD0.05 values for comparisons of treatment effects by Student's t test or analysis of variance (see, e.g., Steel et al., (1960) Principles and Procedures of Statistics. McGraw-Hill, N.Y.).
Moapa 69′ alfalfa seeds for all experiments were soaked 30 min in 70% ethanol, rinsed with sterile water, treated 5 min in concentrated H2SO4, rinsed with sterile water, soaked 30 min in commercial bleach and then washed with sterile water. For respiration tests approximately 400 seeds (1 gram) were germinated on a 10×10-cm screen above a hydroponic nutrient solution, see Volpin (1998) Plant Physiol. 116:777-783. In some hydroponic experiments the nutrient solution was supplemented to contain ampicillin (125 mg/L) and rifampicin (10 mg/L). Plant growth experiments were done in sterile pots (10×10×10 cm) containing vermiculite. […]

[2] = Stability to light and heat; type: physicochemical; conditions: e.g., 40° C.
[3] = Solubility and hydrophobicity; type: physicochemical; conditions: for solubility during purification: all solvents; for solubility: purified compounds, water, methanol; for hydrophobicity: removed from aqueous solution in C18 resin
alfalfa seedlings = test: Net photosynthesis measured as radioactive 14CO2 incorporation in alfalfa seedlings; type: in vivo, Medicago sativa L.
Procedure: Twenty hours after treating alfalfa roots with purified compound D, 25% to 30% increases in net photosynthesis was effected, as measured by radioactive ^14CO2 incorporation tests. Purified compound D was supplied at approximately 100 pM in solution surrounding roots of three day old alfalfa seedlings. Net photosynthesis was measured as radioactive ^14CO2 incorporation by exposing randomized treatments of all plants simultaneously for about 15 minutes to ^14CO2 in a single chamber with thorough mixing of the chamber atmosphere. Data points were means from two to four replicates, each of which contained approximately 400 seedlings.
The isotopic assay for measuring net photosynthesis with ^14CO2 is described in Sheikholeslam (1980) Botanical Gazette 141:48-52. Briefly, to measure net photosynthesis, intact seedling are placed in a clear plastic box with direct exposure to sunlight or artificial lights. Isotopically labeled ^14CO2 is generated in the plant chamber by injecting an acid solution through a rubber stopper in the wall of the box and into a beaker containing ^14C-bicarbonate. The ^14CO2 released by that chemical reaction is distributed throughout the box with a fan. After 15 minutes of photosynthesis in the presence of ^14CO2, plants are frozen in liquid nitrogen and separated into roots, stems and leaves. The amount of ^14CO2 is measured in the various plant parts with a scintillation counter after chemical digestion of the plant matter.

[4] = about 100 pM to seedling roots every 48 hours for 10 days

## CC(=O)c1c(O)cc(O)cc1O [monoacetylphloroglucinol]
R. meliloti 1021
  effect on the production of compound Y: no consistent effect

## Cc1cc2nc3[nH]c(=O)[nH]c(=O)c3nc2cc1C [lumichrome, 7,8,-dimethylalloxazine]
alfalfa; 5 nM applied to young alfalfa roots, after 12 days, P≦0.05
  increase in plant growth: 8%
alfalfa; [4]
  change in root dry weight: no increase in root dry weight
  increase in final shoot dry mass relative to untreated control plants: 10%
alfalfa; alfalfa seeds soaked in 5 nM before germination, 12 days, P≦0.01
  increase in plant growth: 18%
alfalfa; lumichrome-treated plants, 12 days
  root mass relative to control: numerically, but not significantly, larger
alfalfa; root drench 5 nM, 12 days, P≦0.05
  increase in shoot dry weight relative to control shoots: 7%
alfalfa; root drench 50 nM, 12 days, P≦0.01
  increase in shoot dry weight relative to control shoots: 12%
alfalfa; roots exposed or seeds immersed before germination, P≦0.05
  increase in dry matter on a whole-plant basis: 8% to 18%
alfalfa; seed soaking 5 nM, 12 days, P≦0.01
  increase in shoot dry weight relative to control shoots: 18%
[1]; 3 to 50 nM treatments of alfalfa roots, several experiments, P≦0.05
  increase in root respiration: 11% to 30%
[1]; alfalfa roots treated with 3 nM, within 48 hours, P≦0.05
  increase in root respiration: 21%
[1]; in vivo
  time for the (slower) increase in root respiration: greater than 4 hours
[1]; intact root systems exposed 39 hours, 3 nM lumichrome or S. meliloti cells 10^7 cfu/ml, P≦0.05
  increase in root respiration: 21%
[2]
  stability to light and heat: degraded by light and heat
[3]
  solubility during purification: Solubility problems
  solubility: soluble in both water and methanol
  hydrophobicity: moderately hydrophobic
Alfalfa seedlings; approximately 100 pM around roots of three day old seedlings, 20 hours after treating roots
  increase in net photosynthesis over untreated control: 25% to 30%
Alfalfa seedlings; no more than 100 pM
  time to peak of 14CO2 incorporation: 5 to 10 h
Alfalfa seedlings; no more than 100 pM, 8 hour time point after treating roots
  increase in net photosynthesis above untreated controls: 45% to 75%
Alfalfa seedlings; no more than 100 pM, after approximately 20 hours
  14CO2 incorporation: about 2.0 ^14CO2 cpm×10^5 per gram cotyledon
Alfalfa seedlings; no more than 100 pM, peak after about 5 to 10 hours, negative control about 1.5
  14CO2 incorporation, peak: 2.5 to 2.75 ^14CO2 cpm×10^5 per gram cotyledon

## Oc1cc(O)cc(O)c1 [phloroglucinol, reference compound]
R. meliloti 1021
  effect on the production of compound Y: no consistent effect

## Cc1cc2nc3c(=O)[nH]c(=O)nc-3n(C[C@H](O)[C@H](O)[C@H](O)CO)c2cc1C [riboflavin]
[1]; 200 nM riboflavin, one test
  increase in root respiration compared with lumichrome: approximately the same increase in root respiration as 30 nM lumichrome
[1]; very low (e.g., picomolar) concentrations, various experiments
  increase in root respiration: 11% to 31%
[2]
  stability to light and heat: degraded by light and heat
[3]
  solubility during purification: only marginally better
  solubility: soluble in both water and methanol
  hydrophobicity: moderately hydrophobic
Alfalfa seedlings; very low (e.g., picomolar) concentrations
  enhancement of net photosynthesis: ≤ 7%

## CC(=O)c1c(O)cc(O)c(C(C)=O)c1O [diacetylphloroglucinol, 2,4-diacetyl-1,3,5-benzenetriol]
R. meliloti 1021
  effect on the production of compound Y: no consistent effect
Alfalfa seedlings; applied to roots in nanomolar concentrations
  increase in net photosynthesis in plants: ≤ 50%
